{"source": "patent US20240383923A1", "about": "“HETEROARYL DERIVATIVE AND USE THEREOF” (VORONOI INC., priority 2022, published 2024)"}
{"system": "BT-474 cancer cells", "assay": "Inhibition of BT-474 cell proliferation (CellTiter-Glo)", "assay_type": "cell-based", "settings": "Homo sapiens, BT-474 cells, 120 hours", "description": "BT-474 cancer cells were cultured by using RPMI-1640 medium containing 20% FBS. The BT-474 cancer cells were seeded to a white clear bottom 96 well plate (Corning) at 5,000 cells per well 48 hours before the BT-474 cancer cells were treated with Example Compounds. Example Compounds were diluted in dimethylsulfoxide (3-fold diluted, total 11 concentrations) and 1 μL each was injected so that the final concentration was 0.2 nM to 10 μM. For the measurement of living cells, the cells were stored at room temperature for 10 minutes using the CellTiter-Glo cell viability reagent (Promega) after a predetermined time (120 hours) after the treatment of Example Compounds, and then the luminescence intensity was measured using a reader (SynergyNeo, Biotek). Each test was repeated three times.\nThe result value was calculated as a cell growth rate (%) compared to a control group. Graphs were plotted and GI50 values were calculated using the GraphPad Prism version 8.0 program, and the results are shown in Table 18 below.", "units": {"GI50": "nM"}}
{"smiles": "C=CC(=O)N1CCC(Nc2cc3c(Nc4cc(C)c(Oc5ccn6ncnc6c5)cc4OC4CN(C)C4)ncnc3cc2OC)CC1", "note": "[Example 4, 1-(4-((4-((4-([1,2,4]triazolo[1,5-a]pyridin-7-yloxy)-5-methyl-2-((1-methylazetidin-3-yl)oxy)phenyl)amino)-7-methoxyquinazolin-6-yl)amino)piperidin-1-yl)prop-2-en-1-one]", "GI50": "100 to 500"}
{"smiles": "C=CC(=O)N1CCC(Oc2cc3c(Nc4ccc(Oc5ccn(-c6cnc(OC)nc6)n5)cc4OC)ncnc3cc2OC)CC1", "note": "[Example 10, 1-(4-((7-methoxy-4-((2-methoxy-4-((1-(2-methoxypyrimidin-5-yl)-1H-pyrazol-3-yl)oxy)phenyl)amino)quinazolin-6-yl)oxy)piperidin-1-yl)prop-2-en-1-one]", "GI50": "100 to 500"}
{"smiles": "C=CC(=O)N1CCC(Oc2cc3c(Nc4cc(Cl)c(Oc5cccc(OC)c5)cc4OC)ncnc3cc2OC)CC1", "note": "[Example 11, 1-(4-((4-((5-chloro-2-methoxy-4-(3-methoxyphenoxy)phenyl)amino)-7-methoxyquinazolin-6-yl)oxy)piperidin-1-yl)prop-2-en-1-one]", "GI50": "≤ 50"}
{"smiles": "COc1cc(Oc2ccn3ncnc3c2)c(C)cc1Nc1ncnc2cc(OC)c(OC3CCN(C(=O)C(F)Cl)CC3)cc12", "note": "(stereo not shown) [Example 14, 1-(4-((4-((4-([1,2,4]triazolo[1,5-a]pyridin-7-yloxy)-2-methoxy-5-methylphenyl)amino)-7-methoxyquinazolin-6-yl)oxy)piperidin-1-yl)-2-chloro-2-fluoroethan-1-one]", "GI50": "≤ 50"}
{"smiles": "C=CC(=O)N1CC2CC1CC2Oc1cc2c(Nc3cc(C)c(Oc4ccn5ncnc5c4)cc3OC)ncnc2cc1OC", "note": "(stereo not shown) [Example 18, 1-(5-((4-((4-([1,2,4]triazolo[1,5-a]pyridin-7-yloxy)-2-methoxy-5-methylphenyl)amino)-7-methoxyquinazolin-6-yl)oxy)-2-azabicyclo[2.2.1]heptan-2-yl)prop-2-en-1-one]", "GI50": "≤ 50"}
{"smiles": "C=CC(=O)N1CC(Oc2cc3c(Nc4cc(C)c(Oc5ccn6ncnc6c5)cc4OC)ncnc3cc2OC)C1", "note": "[Example 19, 1-(3-((4-((4-([1,2,4]triazolo[1,5-a]pyridin-7-yloxy)-2-methoxy-5-methylphenyl)amino)-7-methoxyquinazolin-6-yl)oxy)azetidin-1-yl)prop-2-en-1-one]", "GI50": "≤ 50"}
{"smiles": "C=CC(=O)N1CCOc2cc3ncnc(Nc4cc(C)c(Oc5ccn6ncnc6c5)cc4OC)c3cc21", "note": "[Example 21, 1-(4-((4-([1,2,4]triazolo[1,5-a]pyridin-7-yloxy)-2-methoxy-5-methylphenyl)amino)-7,8-dihydro-6H-[1,4]oxazino[3,2-g]quinazolin-6-yl)prop-2-en-1-one]", "GI50": "100 to 500"}
{"smiles": "C=CC(=O)Nc1cc2c(Nc3cc(C)c(Oc4ccn5ncnc5c4)cc3OC)ncnc2cc1N1CCC(N2CCOCC2)CC1", "note": "[Example 22, N-(4-((4-([1,2,4]triazolo[1,5-a]pyridin-7-yloxy)-2-methoxy-5-methylphenyl)amino)-7-(4-morpholinopiperidin-1-yl)quinazolin-6-yl)acrylamide]", "GI50": "50 to 100"}
{"smiles": "C=CC(=O)Nc1cc2c(Nc3cc(C)c(Oc4ccn5ncnc5c4)cc3OC)ncnc2cc1N1CCOCC1", "note": "[Example 23, N-(4-((4-([1,2,4]triazolo[1,5-a]pyridin-7-yloxy)-2-methoxy-5-methylphenyl)amino)-7-morpholinoquinazolin-6-yl)acrylamide]", "GI50": "> 500"}
{"smiles": "COc1cc(Oc2ccn3ncnc3c2)c(C)cc1Nc1ncnc2ccc(NC(=O)/C=C/CN(C)C)c(Cl)c12", "note": "[Example 26, (E)-N-(4-((4-([1,2,4]triazolo[1,5-a]pyridin-7-yloxy)-2-methoxy-5-methylphenyl)amino)-5-chloroquinazolin-6-yl)-4-(dimethylamino)but-2-enamide]", "GI50": "≤ 50"}
{"smiles": "C=CC(=O)N1CCN(c2ncc3ncnc(Nc4cc(C)c(Oc5ccn6ncnc6c5)cc4OC)c3n2)CC1", "note": "[Example 27, 1-(4-(8-((4-([1,2,4]triazolo[1,5-a]pyridin-7-yloxy)-2-methoxy-5-methylphenyl)amino)pyrimido[5,4-d]pyrimidin-2-yl)piperazin-1-yl)prop-2-en-1-one]", "GI50": "≤ 50"}
{"smiles": "CC#CC(=O)Nc1cc2c(Nc3cc(C)c(Oc4ccn5ncnc5c4)cc3OC)ncnc2cc1OC", "note": "[Example 28, N-(4-((4-([1,2,4]triazolo[1,5-a]pyridin-7-yloxy)-2-methoxy-5-methylphenyl)amino)-7-methoxyquinazolin-6-yl)but-2-ynamide]", "GI50": "≤ 50"}
{"smiles": "COc1cc2ncnc(Nc3cc(C)c(Oc4ccn5ncnc5c4)cc3OC)c2cc1NC(=O)/C=C/CNC1CCS(=O)(=O)CC1", "note": "[Example 38, (E)-N-(4-((4-([1,2,4]triazolo[1,5-a]pyridin-7-yloxy)-2-methoxy-5-methylphenyl)amino)-7-methoxyquinazolin-6-yl)-4-((1,1-dioxidotetrahydro-2H-thiopyran-4-yl)amino)but-2-enamide]", "GI50": "≤ 50"}
{"smiles": "COc1cc2ncnc(Nc3cc(C)c(Oc4ccn5ncnc5c4)cc3OC)c2cc1NC(=O)/C=C/CN1CC2(COC2)C1", "note": "[Example 40, (E)-N-(4-((4-([1,2,4]triazolo[1,5-a]pyridin-7-yloxy)-2-methoxy-5-methylphenyl)amino)-7-methoxyquinazolin-6-yl)-4-(2-oxa-6-azaspiro[3.3]heptan-6-yl)but-2-enamide]", "GI50": "≤ 50"}
{"smiles": "COc1cc2ncnc(Nc3cc(C)c(Oc4ccn5ncnc5c4)cc3OC)c2cc1NC(=O)/C(F)=C/C1CCCN1C", "note": "(stereo not shown) [Example 43, (Z)—N-(4-((4-([1,2,4]triazolo[1,5-a]pyridin-7-yloxy)-2-methoxy-5-methylphenyl)amino)-7-methoxyquinazolin-6-yl)-2-fluoro-3-(1-methylpyrrolidin-2-yl)acrylamide]", "GI50": "≤ 50"}
{"smiles": "COc1cc2ncnc(Nc3cc(C)c(Oc4ccn5ncnc5c4)cc3OC)c2cc1NC(=O)/C(F)=C\\[C@@H]1CCCN1C", "note": "[Example 44, (S,E)-N-(4-((4-([1,2,4]triazolo[1,5-a]pyridin-7-yloxy)-2-methoxy-5-methylphenyl)amino)-7-methoxyquinazolin-6-yl)-2-fluoro-3-(1-methylpyrrolidin-2-yl)acrylamide]", "GI50": "≤ 50"}
{"smiles": "COc1cc2ncnc(Nc3cc(C)c(Oc4cc5ncnn5cn4)cc3OC)c2cc1NC(=O)/C(F)=C\\[C@H]1CCCN1C", "note": "[Example 47, (R,E)-N-(4-((4-([1,2,4]triazolo[1,5-c]pyrimidin-7-yloxy)-2-methoxy-5-methylphenyl)amino)-7-methoxyquinazolin-6-yl)-2-fluoro-3-(1-methylpyrrolidin-2-yl)acrylamide]", "GI50": "≤ 50"}
{"smiles": "COc1cc2ncnc(Nc3cc(C)c(Oc4cc5ncnn5cn4)cc3OC)c2cc1NC(=O)/C(F)=C/[C@H]1CCCN1C", "note": "[Example 48, (R,Z)—N-(4-((4-([1,2,4]triazolo[1,5-c]pyrimidin-7-yloxy)-2-methoxy-5-methylphenyl)amino)-7-methoxyquinazolin-6-yl)-2-fluoro-3-(1-methylpyrrolidin-2-yl)acrylamide]", "GI50": "≤ 50"}
{"smiles": "COc1cc2ncnc(Nc3cc(F)c(Oc4ccn5ncnc5c4)cc3OC)c2cc1NC(=O)/C(F)=C\\[C@H]1CCCN1C", "note": "[Example 49, (R,E)-N-(4-((4-([1,2,4]triazolo[1,5-a]pyridin-7-yloxy)-5-fluoro-2-methoxyphenyl)amino)-7-methoxyquinazolin-6-yl)-2-fluoro-3-(1-methylpyrrolidin-2-yl)acrylamide]", "GI50": "≤ 50"}
{"smiles": "COc1cc2ncnc(Nc3cc(C)c(Oc4ccc5c(c4)ncn5C)cc3OC)c2cc1NC(=O)/C(F)=C/[C@H]1CCCN1C", "note": "[Example 56, (R,Z)-2-fluoro-N-(7-methoxy-4-((2-methoxy-5-methyl-4-((1-methyl-1H-benzo[d]imidazol-5-yl)oxy)phenyl)amino)quinazolin-6-yl)-3-(1-methylpyrrolidin-2-yl)acrylamide]", "GI50": "≤ 50"}
{"smiles": "COc1cc2ncnc(Nc3cc(C)c(Oc4ccc5c(c4)ncn5C)cc3OC)c2cc1NC(=O)/C(F)=C\\[C@H]1CCCN1C", "note": "[Example 57, (R,E)-2-fluoro-N-(7-methoxy-4-((2-methoxy-5-methyl-4-((1-methyl-1H-benzo[d]imidazol-5-yl)oxy)phenyl)amino)quinazolin-6-yl)-3-(1-methylpyrrolidin-2-yl)acrylamide]", "GI50": "≤ 50"}
{"smiles": "COc1cc2ncnc(Nc3cc(Cl)c(Oc4ccc5c(c4)ncn5C)cc3OC)c2cc1NC(=O)/C(F)=C/[C@H]1CCCN1C", "note": "[Example 58, (R,Z)—N-(4-((5-chloro-2-methoxy-4-((1-methyl-1H-benzo[d]imidazol-5-yl)oxy)phenyl)amino)-7-methoxyquinazolin-6-yl)-2-fluoro-3-(1-methylpyrrolidin-2-yl)acrylamide]", "GI50": "≤ 50"}
{"smiles": "COc1cc2ncnc(Nc3cc(Cl)c(Oc4ccc5c(c4)ncn5C)cc3OC)c2cc1NC(=O)/C(F)=C\\[C@H]1CCCN1C", "note": "[Example 59, (R,E)-N-(4-((5-chloro-2-methoxy-4-((1-methyl-1H-benzo[d]imidazol-5-yl)oxy)phenyl)amino)-7-methoxyquinazolin-6-yl)-2-fluoro-3-(1-methylpyrrolidin-2-yl)acrylamide]", "GI50": "≤ 50"}
{"smiles": "COc1cc2ncnc(Nc3cc(F)c(Oc4ccc5c(c4)ncn5C)cc3OC)c2cc1NC(=O)/C(F)=C\\[C@H]1CCCN1C", "note": "[Example 60, (R,E)-2-fluoro-N-(4-((5-fluoro-2-methoxy-4-((1-methyl-1H-benzo[d]imidazol-5-yl)oxy)phenyl)amino)-7-methoxyquinazolin-6-yl)-3-(1-methylpyrrolidin-2-yl)acrylamide]", "GI50": "≤ 50"}
{"smiles": "COc1cc2ncnc(Nc3cc(F)c(Oc4ccc5c(c4)ncn5C)cc3OC)c2cc1NC(=O)/C(F)=C/[C@H]1CCCN1C", "note": "[Example 61, (R,Z)-2-fluoro-N-(4-((5-fluoro-2-methoxy-4-((1-methyl-1H-benzo[d]imidazol-5-yl)oxy)phenyl)amino)-7-methoxyquinazolin-6-yl)-3-(1-methylpyrrolidin-2-yl)acrylamide]", "GI50": "≤ 50"}
